The values that follow come from patent publication EP0578521B1, “New peptide derivatives with bradykinin-antagonistic activity, process to prepare them and pharmaceutical compositions containing them” (ADIR ET COMPAGNIE, priority 1992, dated 1996).

The subject of experiment [1] is Récepteur B2. In kind it is cell-based, lapin. The protocol:
Exemple 44 : Mesure in vitro de l'effet des dérivés de l'invention vis à vis de la réponse contractile du muscle lisse de la veine jugulaire de lapin induite par la bradykinine
Cette étude a été réalisée selon le protocole décrit par D. REGOLI et J. BARABE (Récepteur B2-Pharmacology of Bradykinin and related kinins, Pharm. Rev., 32, 1, 1-46, 1980). Des anneaux de veine jugulaire sont suspendus dans des chambres d'organes (40 ml) contenant une solution de KREBS thermostatée à 37°C, oxygénée en permanence par un bullage de 95 % 02/5 % CO2. La force isométrique développée par les anneaux est mesurée et enregistrée. La tension de base est d'environ 2 g. Les cuves reçoivent les concentrations du dérivé de l'invention à tester (10^-8M à 10^-5M), une cuve contrôle reçoit le solvant. Une courbe concentration réponse à la bradykinine est réalisée de 10^-10M à 10^-5M avec une progression par demi-log. La puissance des antagonistes à la bradykinine est mesurée à partir des courbes log dose-effet permettant la détermination des pA2 (logarithme négatif de la concentration molaire du dérivé de l'invention qui oblige à doubler la concentration de bradykinine pour obtenir le même effet). Lors de ce test, les dérivés de l'invention ont un pA2 compris entre 9 et 10. Plus particulièrement, le pA2 du composé de l'exemple 2 est égal à 9,1 ± 0,1, celui de l'exemple 3 est égal à 9,4 ± 0,1, celui de l'exemple 5 est égal à 9,3 ± 0,1.

In experiment [2] the test system is oedème de la patte de rat induite par injection de carragénine. The following applies: rat, 0,1 mg/kg I.V., at time 1 hour, versus vehicle control group.
Excerpt: L'activité anti-inflammatoire des dérivés de l'invention a été mesurée en utilisant le modèle de l'oedème de la patte de rat induite par injection de carragénine (WINTER G. A. et coll. Proc. Soc. Exp. Biol. Med., 3, 544-547, 1960). Cette étude est effectuée sur rats mâles de 180-210 g par lot de 8. Les dérivés de l'invention sont administrés par voie I.V. au temps 0 précédant immédiatement l'injection de carragénine par voie sous-cutanée dans la plante de la patte arrière droite du rat (Carragénine lambda type IV, sigma, solution à 1 %, volume injecté 0,1 ml). Le volume de la patte aux différents temps de l'expérimentation est mesurée par plethysmographie. L'inhibition de l'oedème au temps 3 heures est calculée par rapport à un lot contrôle ayant reçu le véhicule et exprimée en pourcentage d'inhibition.
Where [3] appears, read: antagonism of bradykinin concentration-response curve (10^-10M to 10^-5M), rabbit jugular vein rings, compound 10^-8M to 10^-5M, 37°C.

Where two headings read alike, the source gives them in different places. Square brackets hold non-standard residues; d marks the D form. Peptide text beside a SMILES is read from it. * marks the point of attachment. Benzoyl(4-guanidino) = N=C(N)Nc1ccc(C(=O)*)cc1; Oic = O=C(O)[C@@H]1C[C@@H]2CCCC[C@@H]2N1; Hyp = O=C(O)[C@@H]1C[C@@H](O)CN1; dTic = O=C(O)[C@H]1Cc2ccccc2CN1; 2Thi = N[C@@H](Cc1cccs1)C(=O)O; Agp = N=C(N)NC[C@H](N)C(=O)O

On to `N=C(N)NCCC[C@H](NC(=O)c1ccc(NC(=N)N)cc1)C(=O)N1CCC[C@H]1C(=O)N1C[C@H](O)C[C@H]1C(=O)NCC(=O)N[C@@H](Cc1cccs1)C(=O)N[C@@H](CO)C(=O)N1Cc2ccccc2C[C@@H]1C(=O)N1[C@H](C(=O)N[C@@H](CNC(=N)N)C(=O)O)C[C@@H]2CCCC[C@@H]21` [Exemple 5, Gba-Arg-Pro-Hyp-Gly-Thi-Ser-tic-Oic-Gpr-OH] ({Benzoyl(4-guanidino)}-RP[Hyp]G[2Thi]S[dTic][Oic][Agp]-OH), for which the pA2 in experiment [1] was 9,3 ± 0,1. For “Gba-Arg-Pro-Hyp-Gly-Thi-Ser-[3,2-c]ttp-Oic-Arg [Exemple 2]”, the pA2 in experiment [1] (setting [3]) is reported as 9,1 ± 0,1. Further, the “inhibition de l'oedème” value in experiment [2] is reported as 36%. On to “arg-Arg-Pro-Hyp-Gly-Thi-Ser-[3,2-c]ttp-Oic-Arg [Exemple 3]”, for which the pA2 in experiment [1] (setting [3]) is recorded as 9,4 ± 0,1. Also, the “inhibition de l'oedème” value in experiment [2] was determined as 36%.
